The results in this text go back to patent publication US8877741B2, “Pyrrolidine derivatives, pharmaceutical compositions and uses thereof” (Boehringer Ingelheim International GmbH, priority 2013, dated 2014).

human ACC2, sequence (O00763 129-2458): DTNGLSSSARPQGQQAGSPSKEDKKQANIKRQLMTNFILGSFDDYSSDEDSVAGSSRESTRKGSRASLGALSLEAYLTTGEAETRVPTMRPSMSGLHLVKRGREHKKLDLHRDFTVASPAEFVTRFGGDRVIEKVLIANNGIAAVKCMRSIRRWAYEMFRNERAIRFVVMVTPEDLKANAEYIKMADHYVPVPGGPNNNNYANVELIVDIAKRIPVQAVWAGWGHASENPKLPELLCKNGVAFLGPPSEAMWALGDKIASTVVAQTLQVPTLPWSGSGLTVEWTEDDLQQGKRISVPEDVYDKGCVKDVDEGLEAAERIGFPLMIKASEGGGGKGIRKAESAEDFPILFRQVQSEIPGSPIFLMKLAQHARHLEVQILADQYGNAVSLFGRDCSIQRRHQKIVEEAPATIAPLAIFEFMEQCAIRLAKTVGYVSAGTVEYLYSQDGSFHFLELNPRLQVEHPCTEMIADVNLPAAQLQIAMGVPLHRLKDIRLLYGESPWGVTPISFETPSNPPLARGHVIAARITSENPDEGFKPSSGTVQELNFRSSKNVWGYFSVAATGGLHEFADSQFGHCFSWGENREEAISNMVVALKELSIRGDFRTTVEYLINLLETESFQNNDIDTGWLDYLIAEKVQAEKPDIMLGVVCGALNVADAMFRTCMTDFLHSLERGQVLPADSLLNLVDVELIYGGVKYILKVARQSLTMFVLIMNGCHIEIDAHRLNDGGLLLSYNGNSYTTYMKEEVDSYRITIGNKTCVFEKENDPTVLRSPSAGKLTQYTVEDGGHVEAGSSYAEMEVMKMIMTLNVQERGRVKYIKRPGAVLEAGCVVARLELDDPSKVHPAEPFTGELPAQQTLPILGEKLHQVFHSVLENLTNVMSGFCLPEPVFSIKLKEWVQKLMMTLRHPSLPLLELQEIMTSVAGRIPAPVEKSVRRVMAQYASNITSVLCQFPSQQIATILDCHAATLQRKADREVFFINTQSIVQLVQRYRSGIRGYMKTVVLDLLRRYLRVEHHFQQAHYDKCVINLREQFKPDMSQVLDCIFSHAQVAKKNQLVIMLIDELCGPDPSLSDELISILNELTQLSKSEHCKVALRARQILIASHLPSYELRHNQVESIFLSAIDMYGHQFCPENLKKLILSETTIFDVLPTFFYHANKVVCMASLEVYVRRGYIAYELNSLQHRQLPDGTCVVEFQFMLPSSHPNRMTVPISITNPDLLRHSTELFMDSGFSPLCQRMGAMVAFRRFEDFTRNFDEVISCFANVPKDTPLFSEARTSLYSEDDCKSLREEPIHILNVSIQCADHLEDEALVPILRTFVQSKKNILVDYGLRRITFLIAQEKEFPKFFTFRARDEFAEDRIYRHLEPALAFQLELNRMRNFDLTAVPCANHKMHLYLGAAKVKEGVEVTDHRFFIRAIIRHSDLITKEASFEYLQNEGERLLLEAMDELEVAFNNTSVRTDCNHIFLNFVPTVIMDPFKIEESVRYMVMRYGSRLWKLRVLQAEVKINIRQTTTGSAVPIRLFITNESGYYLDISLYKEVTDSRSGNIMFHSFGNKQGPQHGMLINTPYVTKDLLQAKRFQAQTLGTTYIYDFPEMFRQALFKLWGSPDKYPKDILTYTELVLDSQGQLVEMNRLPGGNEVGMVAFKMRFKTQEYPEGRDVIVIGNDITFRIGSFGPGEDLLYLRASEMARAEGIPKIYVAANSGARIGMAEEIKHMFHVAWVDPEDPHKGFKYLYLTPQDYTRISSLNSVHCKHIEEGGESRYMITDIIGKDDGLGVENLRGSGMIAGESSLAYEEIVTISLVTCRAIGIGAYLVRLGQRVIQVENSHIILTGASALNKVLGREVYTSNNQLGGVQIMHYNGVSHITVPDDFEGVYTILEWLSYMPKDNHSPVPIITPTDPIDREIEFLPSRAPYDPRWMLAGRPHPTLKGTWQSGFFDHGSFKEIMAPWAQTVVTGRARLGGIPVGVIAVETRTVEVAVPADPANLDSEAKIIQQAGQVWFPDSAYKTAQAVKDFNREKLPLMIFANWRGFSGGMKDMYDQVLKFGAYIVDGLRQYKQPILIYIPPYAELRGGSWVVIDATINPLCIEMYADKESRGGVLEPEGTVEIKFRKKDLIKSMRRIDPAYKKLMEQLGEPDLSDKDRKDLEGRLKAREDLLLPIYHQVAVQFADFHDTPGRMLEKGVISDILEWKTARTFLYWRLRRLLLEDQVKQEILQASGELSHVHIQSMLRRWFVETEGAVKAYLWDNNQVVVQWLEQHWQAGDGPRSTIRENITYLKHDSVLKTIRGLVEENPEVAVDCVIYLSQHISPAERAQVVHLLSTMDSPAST

The assay has as its target human ACC2 (Homo sapiens (Human), UniProt O00763). Nature of the assay: ACC2 assay, spectrophotometric 384 well assay (NADH-linked kinetic method). Format: biochemical. The conditions noted are these: human ACC2 construct lacking the 128 N-terminal amino acids; coupled lactate dehydrogenase/pyruvate kinase reaction, 340 nm, 25° C. In a few lines: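 N-terminally truncated human ACC2 (lacking 128 residues), expressed in insect cells, was coupled to pyruvate kinase/lactate dehydrogenase, with NADH and acetyl-CoA at 2000 μM and ATP at 500 μM final. The OD340 decrease was followed over 15 min at 25 °C. Slopes were normalised to vehicle and no-acetyl-CoA controls, and IC50 came from four-parameter regression.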
Take `CC(=O)N[C@@H](C)c1ccc(O[C@@H]2CCN(c3ccnc(OCC(F)F)c3F)C2)cc1` [Example 9.52]: the 50% inhibitory concentration (IC50) – broadly, the concentration that gives 50% inhibition – worked out at 0.061 µM.

As to `C[C@H](NC(=O)c1ccnc(C#N)c1)c1ccc(OC2CCN(c3cccc(C(F)(F)F)n3)C2)cc1` (stereo partly shown) [Example 2.62], the midpoint of inhibition, the IC50, lay at 0.175 µM.

`CC(C)Oc1cc(N2CCC(Oc3ccc([C@H](C)NC(=O)c4cncs4)cc3)C2)ccn1` (stereo partly shown) [Example 2.24] had an IC50 of 0.199 µM.

In the case of `CC(=O)N[C@@H](C)c1ccc(O[C@@H]2CCN(c3ccnc(OCCC(C)C)c3)C2)cc1` [Example 9.34], the IC50 was 0.095 µM.

For `CC(C)Oc1cc(N2CCC(Oc3ccc([C@H](C)NC(=O)CC#N)cc3)C2)ccn1` (stereo partly shown) [Example 2.7], half-maximal inhibition (IC50) required 0.389 µM.

The compound `CC(=O)N[C@@H](C)c1ccc(O[C@@H]2CCN(c3ccnc(OC4CCCC4)c3F)C2)cc1` [Example 9.84] came in with an IC50 of 0.045 µM.

Regarding `COC(=O)N[C@@H](C)c1ccc(OC2CCN(c3ccnc(OCC(F)F)c3)C2)cc1` (stereo partly shown) [Example 4.5], half-maximal inhibition (IC50) was put at 0.166 µM.

As for `C=C(C)COc1cc(N2CC[C@@H](Oc3ccc([C@H](C)NC(C)=O)cc3)C2)ccn1` [Example 9.17], the IC50 stood at 0.077 µM. Compared with the last compound, the IC50 is about 2.2-fold lower.

The compound `CC(=O)N[C@@H](C)c1ccc(O[C@@H]2CCN(c3ccnc(OC(C)c4ccccc4)c3)C2)cc1` (stereo partly shown) [Example 9.19] gave an IC50 of 0.33 µM.

As to `C[C@H](NC(=O)C1(C)CC1)c1ccc(OC2CCN(c3cccc(C(F)(F)F)n3)C2)cc1` (stereo partly shown) [Example 2.40], the concentration for half-maximal inhibition (IC50) was 0.139 µM. This IC50 is about 2.4-fold lower than that of the compound before.

For the compound `COC1CN(c2nccc(N3CC[C@@H](Oc4ccc([C@H](C)NC(C)=O)cc4)C3)c2F)C1` [Example 1.109], the IC50 amounted to 0.155 µM. The IC50 values of the last two compounds are within 1.5-fold of each other.

For the compound `CC(=O)N[C@@H](C)c1ccc(O[C@@H]2CCN(c3ccnc(OCC(C)C)c3C)C2)cc1` [Example 9.58], the IC50 was 0.055 µM.

For the compound `CC(=O)N[C@@H](C)c1ccc(O[C@@H]2CCN(c3ccnc(OCC4CCCO4)c3)C2)cc1` (stereo partly shown) [Example 9.49], it took 0.668 µM to reach half-maximal inhibition (IC50). This IC50 lies about 12-fold higher than the previous one.

With `C[C@H](NC(=O)C(F)F)c1ccc(OC2CCN(c3ccnc(OCC4CC4)c3)C2)cc1` (stereo partly shown) [Example 2.81], the IC50 is 0.035 µM.

Compound `CC(=O)N[C@@H](C)c1ccc(O[C@@H]2CCN(c3cc(OCC(C)C)ncc3C#N)C2)cc1` [Example 9.56] registered an IC50 of 0.9 µM.

Regarding `CC(=O)N[C@@H](C)c1ccc(O[C@@H]2CCN(c3ccnc(NCC4CC4)c3Cl)C2)cc1` [Example 1.138], the IC50 came to 0.026 µM. Against the preceding compound, the IC50 is about 35-fold lower.

In turn, `C[C@H](NC(=O)c1ccnnc1)c1ccc(OC2CCN(c3ccnc(OCC4CC4)c3)C2)cc1` (stereo partly shown) [Example 2.88] came in with an IC50 of 0.278 µM.

`CC(=O)N[C@@H](C)c1ccc(OC2CCN(c3ccc(OC4CC4)cn3)C2)cc1` (stereo partly shown) [Example 1.66] came in with an IC50 of 0.384 µM.

Compound `CCCOc1ccc(N2CCC(Oc3ccc([C@H](C)NC(C)=O)cc3)C2)nc1` (stereo partly shown) [Example 1.2] displayed an IC50 of 0.146 µM.

In turn, `C[C@H](NC(=O)c1ccon1)c1ccc(OC2CCN(c3ccnc(OCC(F)F)c3)C2)cc1` (stereo partly shown) [Example 2.110] returned an IC50 of 0.263 µM.

Consider `CC(=O)NC1CCCN(C(=O)N[C@@H](C)c2ccc(OC3CCN(c4ccc(OCC5CC5(F)F)cn4)C3)cc2)C1` (stereo partly shown) [Example 3.21], for which inhibition was half-maximal at 0.363 µM (IC50).

For `CC(=O)N[C@@H](C)c1ccc(O[C@@H]2CCN(c3cc(N4CCCC4)ncc3F)C2)cc1` [Example 10.20], 0.167 µM corresponded to half-maximal inhibition (IC50).

`CC(C)Oc1cc(N2CCC(Oc3ccc([C@H](C)NC(=O)C(C)C#N)cc3)C2)ccn1` (stereo partly shown) [Example 2.23] yielded an IC50 of 0.97 µM.

Compound `CCOc1ccc(N2CCC(Oc3ccc([C@H](C)NC(C)=O)cc3)C2)cn1` (stereo partly shown) [Example 1.5] returned an IC50 of 0.51 µM.

As for `CC(=O)NC1CCN(C(=O)N[C@@H](C)c2ccc(OC3CCN(c4ccc(OCC5CC5(F)F)cn4)C3)cc2)C1` (stereo partly shown) [Example 3.19], the IC50 was determined as 1.44 µM.

In turn, `CC(=O)N[C@@H](C)c1ccc(OC2CCN(c3ncc(OC4CCC4)cc3F)C2)cc1` (stereo partly shown) [Example 1.20] registered an IC50 of 0.065 µM.

For `CCOc1cnc(N2CCC(Oc3ccc([C@H](C)NC(C)=O)cc3)C2)c(Cl)c1` (stereo partly shown) [Example 1.78], inhibition was half-maximal at 0.198 µM (IC50).

As for `CC(=O)N[C@@H](C)c1ccc(O[C@@H]2CCN(c3nccc(N4CCCC4)c3F)C2)cc1` [Example 1.99], inhibition was half-maximal at 0.201 µM (IC50).

For the compound `C[C@H](NC(=O)CC#N)c1ccc(OC2CCN(c3ccnc(OCC(F)F)c3)C2)cc1` (stereo partly shown) [Example 2.116], the IC50 was 0.362 µM.

As for `C[C@H](NC(=O)C1(C#N)CC1)c1ccc(OC2CCN(c3ccnc(OCC4CC4)c3)C2)cc1` (stereo partly shown) [Example 2.65], inhibition was half-maximal at 0.085 µM (IC50). Against the preceding compound, the IC50 is about 4.3-fold lower.

`CC(=O)N[C@@H](C)c1ccc(O[C@@H]2CCN(c3ccc(OC[C@@H]4CC4(F)F)cn3)C2)cc1` [Example 1.117] had an IC50 of 0.753 µM.

Take `C[C@H](NC(=O)c1cnc(N)o1)c1ccc(OC2CCN(c3ccc(OCC4CC4(F)F)cn3)C2)cc1` (stereo partly shown) [Example 2.57]: the IC50 is 0.255 µM.

For the compound `C[C@H](NC(=O)C1CC1)c1ccc(O[C@@H]2CCN(c3ccnc(OCC(F)F)c3)C2)cc1` [Example 9.42], the IC50 stood at 0.402 µM.

`CCOc1cc(N2CCC(Oc3ccc([C@H](C)NC(C)=O)cc3)C2)c(C)cn1` (stereo partly shown) [Example 1.24]: the IC50 was 0.447 µM.

The compound `CCOc1cccc(N2CCC(Oc3ccc([C@H](C)NC(C)=O)cc3)C2)n1` (stereo partly shown) [Example 1.62] showed an IC50 of 0.802 µM.

`CC(C)Oc1cc(N2CCC(Oc3ccc([C@H](C)NC(=O)C4CCOC4)cc3)C2)ccn1` (stereo partly shown) [Example 2.15] gave an IC50 of 0.769 µM.

Compound `COCCNc1nccc(N2CC[C@@H](Oc3ccc([C@H](C)NC(C)=O)cc3)C2)c1F` [Example 1.119] yielded an IC50 of 1.33 µM.

In turn, `C[C@H](NC(=O)CO)c1ccc(OC2CCN(c3ccnc(OCC(F)F)c3)C2)cc1` (stereo partly shown) [Example 2.115] came in with an IC50 of 0.869 µM. Against the preceding compound, the IC50 is about 1.5-fold lower.

Compound `CC(=O)N[C@@H](C)c1ccc(O[C@@H]2CCN(c3ccnc(N4CCC(F)(F)C4)c3Cl)C2)cc1` [Example 1.132] had an IC50 of 0.041 µM.

For `CC(=O)N[C@@H](C)c1ccc(O[C@@H]2CCN(c3ccnc(N(C)C)c3F)C2)cc1` [Example 10.17], the IC50 is 0.097 µM.

On to `CCOc1ccnc(N2CC[C@@H](Oc3ccc([C@H](C)NC(C)=O)cc3)C2)c1F` [Example 9.69], for which it took 0.603 µM to reach half-maximal inhibition (IC50).

Compound `CCOc1cc(N2CCC(Oc3ccc([C@H](C)NC(C)=O)cc3)C2)c(F)cn1` (stereo partly shown) [Example 1.30] showed an IC50 of 0.117 µM.

As to `CC(=O)N[C@@H](C)c1ccc(O[C@@H]2CCN(c3cccc(N(C)CC(F)F)n3)C2)cc1` [Example 1.133], inhibition was half-maximal at 0.246 µM (IC50).

`CC(=O)N[C@@H](C)c1ccc(O[C@@H]2CCN(c3ccnc(N4CCC(C)(O)C4)c3F)C2)cc1` (stereo partly shown) [Example 10.52]: the IC50 was determined as 0.08 µM.

The compound `CC(=O)N[C@@H](C)c1ccc(O[C@@H]2CCN(c3ccnc(C(=O)N4CCc5c4ccc(F)c5F)c3)C2)cc1` [Example 8.5] had an IC50 of 0.53 µM.

In turn, `CC(=O)Nc1nc(C)c(C(=O)N[C@@H](C)c2ccc(OC3CCN(c4ccnc(N5CCC(F)(F)C5)c4F)C3)cc2)s1` (stereo partly shown) [Example 2.123] displayed an IC50 of 0.058 µM.

As for `CC(=O)N[C@@H](C)c1ccc(OC2CCN(c3ncc(OC4CCCC4)cc3F)C2)cc1` (stereo partly shown) [Example 1.32], half-maximal inhibition (IC50) required 0.05 µM.

Regarding `CC(=O)N[C@@H](C)c1ccc(O[C@@H]2CCN(c3nccc(N(C)CC4CC4)c3F)C2)cc1` [Example 1.100], 0.385 µM corresponded to half-maximal inhibition (IC50).

As to `CC(=O)N[C@@H](C)c1ccc(O[C@@H]2CCN(c3nccc(N(C)C)c3F)C2)cc1` [Example 1.98], the midpoint of inhibition, the IC50, lay at 0.967 µM.

Take `CCC(=O)Nc1nc(C)c(C(=O)N[C@@H](C)c2ccc(O[C@@H]3CCN(c4ccnc(NCC5CC5)c4F)C3)cc2)s1` [Example 1.142]: inhibition was half-maximal at 0.067 µM (IC50).

The compound `COc1c(N2CC[C@@H](Oc3ccc([C@H](C)NC(C)=O)cc3)C2)ccnc1N1CCCC1` [Example 1.136] gave an IC50 of 0.476 µM.

As for `Cc1cc(C(=O)N[C@@H](C)c2ccc(OC3CCN(c4cccc(C(F)(F)F)n4)C3)cc2)no1` (stereo partly shown) [Example 2.61], inhibition was half-maximal at 0.035 µM (IC50).

With `CC(=O)N[C@@H](C)c1ccc(O[C@@H]2CCN(c3ccnc(OC4CCC4)c3)C2)cc1` [Example 9.1], the concentration for half-maximal inhibition (IC50) came to 0.039 µM.

`COCCN(C)c1cccc(N2CC[C@@H](Oc3ccc([C@H](C)NC(C)=O)cc3)C2)n1` [Example 10.28] had an IC50 of 0.142 µM.

`COC(=O)N[C@@H](C)c1ccc(O[C@@H]2CCN(c3ccc(OC[C@H]4CC4(F)F)cn3)C2)cc1` [Example 4.1, Methyl (S)-1-(4-((R)-1-(5-(((R)-2,2-difluorocyclopropyl)methoxy)pyridin-2-yl)pyrrolidin-3-yloxy)phenyl)ethylcarbamate] came in with an IC50 of 0.039 µM.

Consider `CC(=O)N[C@@H](C)c1ccc(O[C@@H]2CCN(c3nc(N(C)C)ccc3F)C2)cc1` [Example 10.18], for which the IC50 was determined as 0.855 µM.

The compound `CCN(C)c1cccc(N2CC[C@@H](Oc3ccc([C@H](C)NC(C)=O)cc3)C2)n1` [Example 10.30] had an IC50 of 0.154 µM.

`CC(=O)N[C@@H](C)c1ccc(OC2CCN(c3cc(OCC4CC4(F)F)ncc3F)C2)cc1` (stereo partly shown) [Example 1.76] returned an IC50 of 0.063 µM.

Take `CCNc1cccc(N2CC[C@@H](Oc3ccc([C@H](C)NC(C)=O)cc3)C2)n1` [Example 10.12]: half-maximal inhibition (IC50) was put at 0.691 µM.

The compound `CC(=O)N[C@@H](C)c1ccc(OC2CCN(c3cccc(C4CCCC4)n3)C2)cc1` (stereo partly shown) [Example 1.84] had an IC50 of 0.115 µM.

Compound `CC(=O)N[C@@H](C)c1ccc(O[C@@H]2CCN(c3ccnc(OCC(F)F)c3OCC(F)F)C2)cc1` [Example 9.66] showed an IC50 of 0.615 µM.

The compound `CC(=O)N[C@@H](C)c1ccc(OC2CCN(c3cc(OCC(C)C)ncc3F)C2)cc1` (stereo partly shown) [Example 1.75] registered a half-maximal inhibitory concentration (IC50) of 0.03 µM.

Compound `CNC(=O)N[C@@H](C)c1ccc(OC2CCN(c3ccnc(OCC4CC4)c3)C2)cc1` (stereo partly shown) [Example 3.5] displayed an IC50 of 0.05 µM.

In turn, `CCCOc1cnc(N2CCC(Oc3ccc([C@H](C)NC(C)=O)cc3)C2)c(F)c1` (stereo partly shown) [Example 1.11] returned an IC50 of 0.151 µM. This IC50 is about 3-fold higher than that of the compound before.
